Experimental data: patent publication US20230017045A1, “PYRIDINE AND PYRIMIDINE CARBOXYLATE HERBICIDES AND METHODS OF USE THEREOF” (Dow AgroSciences LLC, priority 2017, published 2023)
Like-named read-outs stand apart in the source and are kept apart here.

Test system: test plant species
Assay: Post-emergent herbicidal activity test (greenhouse, foliar spray, visual growth reduction)
Assay type: in vivo
Details: 140 g ai/ha; for pest or weed control at 140 g/ha: post-emergence, 336 h
Procedure, shortened: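 Greenhouse plants at first–second true leaf stage sprayed overhead at 187 L/ha with compound in acetone/water/isopropanol/DMSO/crop oil/X-77 carrier; controls received solvent blank. Injury rated visually after 14 d on a 0–100% scale versus untreated and control plants, converted to growth reduction.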

[1] = ECHCG: barnyardgrass (Echinochloa crus-galli), 14 days after application, read-out: Visual Growth Reduction (%) 14 Days After Application, ECHCG
[2] = IPOHE: ivy-leaf morning glory (Ipomoea hederacea), 14 days after application, read-out: Visual Growth Reduction (%) 14 Days After Application, IPOHE
[3] = KCHSC: kochia (Bassia scoparia), 14 days after application, read-out: Visual Growth Reduction (%) 14 Days After Application, KCHSC
[4] = ORYSA: rice (Oryza sativa), 14 days after application, read-out: Visual Growth Reduction (%) 14 Days After Application, ORYSA
[5] = SETFA: giant foxtail (Setaria faberi), 14 days after application, read-out: Visual Growth Reduction (%) 14 Days After Application, SETFA
[6] = SORVU: grain sorghum (Sorghum vulgare), 14 days after application, read-out: Visual Growth Reduction (%) 14 Days After Application, SORVU
[7] = STEME: common chickweed (Stellaria media), 14 days after application, read-out: Visual Growth Reduction (%) 14 Days After Application, STEME
[8] = TRZAS: wheat, spring (Triticum aestivum), 14 days after application, read-out: Visual Growth Reduction (%) 14 Days After Application, TRZAS
[9] = blackgrass (Alopecurus myosuroides), 14 Days After Application, read-out: Visual Growth Reduction (%) ALOMY
[10] = canada thistle (Cirsium arvense), 14 Days After Application, read-out: Visual Growth Reduction (%) CIRAR
[11] = crabgrass (Digitaria sanguinalis), 14 Days After Application, read-out: Visual Growth Reduction (%) DIGSA
[12] = lambsquarters (Chenopodium album), 14 Days After Application, read-out: Visual Growth Reduction (%) CHEAL
[13] = redroot pigweed (Amaranthus retroflexus), 14 Days After Application, read-out: Visual Growth Reduction (%) AMARE
[14] = wild oat (Avena fatua), 14 Days After Application, read-out: Visual Growth Reduction (%) AVEFA
[15] = yellow nutsedge (Cyperus esculentus), 14 Days After Application, read-out: Visual Growth Reduction (%) CYPES

| Structure (SMILES) | pest or weed control at 140 g/ha [1] | pest or weed control at 140 g/ha [2] | pest or weed control at 140 g/ha [3] | pest or weed control at 140 g/ha [4] | pest or weed control at 140 g/ha [5] | pest or weed control at 140 g/ha [6] | pest or weed control at 140 g/ha [7] | pest or weed control at 140 g/ha [8] | pest or weed control at 140 g/ha [9] | pest or weed control at 140 g/ha [10] | pest or weed control at 140 g/ha [11] | pest or weed control at 140 g/ha [12] | pest or weed control at 140 g/ha [13] | pest or weed control at 140 g/ha [14] | pest or weed control at 140 g/ha [15] | further results |
| --- | --- | --- | --- | --- | --- | --- | --- | --- | --- | --- | --- | --- | --- | --- | --- | --- |
| COC(=O)c1nc(-c2ccc(Cl)c([N+](=O)[O-])c2)ccc1Cl [F83, Methyl 3-chloro-6-(4-chloro-3-nitrophenyl) picolinate] | – | – | – | – | – | – | – | – | – | – | – | – | – | – | – | Visual Growth Reduction (%) 14 Days After Application, ALOMY (ALOMY: blackgrass (Alopecurus myosuroides), 14 days after application): G (0-29); Visual Growth Reduction (%) 14 Days After Application, AMARE (AMARE: redroot pigweed (Amaranthus retroflexus), 14 days after application): G (0-29); Visual Growth Reduction (%) 14 Days After Application, AVEFA (AVEFA: wild oat (Avena fatua), 14 days after application): G (0-29); Visual Growth Reduction (%) 14 Days After Application, CHEAL (CHEAL: lambsquarters (Chenopodium album), 14 days after application): G (0-29); Visual Growth Reduction (%) 14 Days After Application, CIRAR (CIRAR: canada thistle (Cirsium arvense), 14 days after application): G (0-29); Visual Growth Reduction (%) 14 Days After Application, CYPES (CYPES: yellow nutsedge (Cyperus esculentus), 14 days after application): G (0-29); Visual Growth Reduction (%) 14 Days After Application, DIGSA (DIGSA: crabgrass (Digitaria sanguinalis), 14 days after application): G (0-29); Visual Growth Reduction (%) 14 Days After Application, ECHCG (ECHCG: barnyardgrass (Echinochloa crus-galli), 14 days after application): G (0-29); Visual Growth Reduction (%) 14 Days After Application, IPOHE (IPOHE: ivy-leaf morning glory (Ipomoea hederacea), 14 days after application): G (0-29); Visual Growth Reduction (%) 14 Days After Application, KCHSC (KCHSC: kochia (Bassia scoparia), 14 days after application): G (0-29); Visual Growth Reduction (%) 14 Days After Application, ORYSA (ORYSA: rice (Oryza sativa), 14 days after application): G (0-29); Visual Growth Reduction (%) 14 Days After Application, SETFA (SETFA: giant foxtail (Setaria faberi), 14 days after application): G (0-29); Visual Growth Reduction (%) 14 Days After Application, SORVU (SORVU: johnsongrass (Sorghum vulgare), 14 days after application): G (0-29); Visual Growth Reduction (%) 14 Days After Application, STEME (STEME: common chickweed (Stellaria media), 14 days after application): G (0-29); Visual Growth Reduction (%) 14 Days After Application, TRZAS (TRZAS: wheat, spring (Triticum aestivum), 14 days after application): G (0-29) |
| COC(=O)c1nc(-c2cccc3c2OC(F)(F)O3)ccc1Cl [F242, Methyl 3-chloro-6-(2,2-difluorobenzo[d][1,3]dioxol-4-yl)picolinate] | 0 to 29% | 0 to 29% | 0 to 29% | 0 to 29% | 0 to 29% | 75 to 84% | 0 to 29% | 0 to 29% | 0 to 29% | 0 to 29% | 0 to 29% | 60 to 74% | 0 to 29% | 0 to 29% | 0 to 29% | – |
| COC(=O)c1nc(-c2ccc(C(F)(F)F)c(Cl)c2)ccc1Cl [F304, Methyl 3-chloro-6-(3-chloro-4-(trifluoromethyl)phenyl)picolinate] | 0 to 29% | 95 to 100% | 0 to 29% | 0 to 29% | 0 to 29% | 0 to 29% | 0 to 29% | 0 to 29% | 0 to 29% | 0 to 29% | 30 to 44% | 0 to 29% | 0 to 29% | 0 to 29% | 0 to 29% | – |
| COC(=O)c1nc(-c2ccc(OC(F)(F)F)cc2Cl)c(F)cc1Cl [F210, Methyl 3-chloro-6-(2-chloro-4-(trifluoromethoxy)phenyl)-5-fluoropicolinate] | 60 to 74% | 95 to 100% | 75 to 84% | 0 to 29% | 85 to 94% | 95 to 100% | 0 to 29% | 45 to 59% | 45 to 59% | 85 to 94% | 85 to 94% | 85 to 94% | 95 to 100% | 60 to 74% | 0 to 29% | – |
